Data taken from patent publication US9417241B2, “5, 10, 15, 20-tetrakis (carboxyphenyl) porphine (TCPP) and kit for use with detecting cancer” (bioAffinity Technologies, Inc., priority 2000, dated 2016).

Columns and labels:
[1] = Maximum solubility of TCPP in saline or blood; format: physicochemical
[2] = system: cancerous cells of the lung; conditions: incubation of a cell sample for 6-24 hours with 200 μg/ml TCPP; cited from earlier work
[3] = system: sputum cells (dysplastic, pre-cancerous and cancerous cells); assay: Glass slide assay for detection of pre-cancerous and cancerous cells with TCPP (fluorescence microscopy of sputum monolayer slides vs PAP-stain cytomorphology); format: cell-based, human

In the case of `O=C(O)c1ccc(-c2c3nc(c(-c4ccc(C(=O)O)cc4)c4ccc([nH]4)c(-c4ccc(C(=O)O)cc4)c4nc(c(-c5ccc(C(=O)O)cc5)c5ccc2[nH]5)C=C4)C=C3)cc1` [TCPP], the “Maximum solubility in saline or blood” value [1] is listed as “about 100 μg/mL”, the “Cellular uptake and localisation of TCPP” value [2] is listed as “bound to the perinuclear membrane and mitochondria of neoplastic cells” and the “Number of Samples with Cells having Numerical Description by TCPP Fluorescence Microscopy/Number of Samples with Cell Description by Cytmorphology” value ([3]; 1 = Large nucleus or nuclei, low to medium fluorescence, Adenicarcinoma, squamous cell and small cell carcinoma (n = 10)) is listed as 6/10. The “Number of Samples with Cells having Numerical Description by TCPP Fluorescence Microscopy/Number of Samples with Cell Description by Cytmorphology” value ([3]; 1 = Large nucleus or nuclei, low to medium fluorescence, Carcinoma in situ (n = 11)) was 10/11, the “Number of Samples with Cells having Numerical Description by TCPP Fluorescence Microscopy/Number of Samples with Cell Description by Cytmorphology” value ([3]; 1 = Large nucleus or nuclei, low to medium fluorescence, Mild dysplasia (n = 12)) was 12/12 and the “Number of Samples with Cells having Numerical Description by TCPP Fluorescence Microscopy/Number of Samples with Cell Description by Cytmorphology” value ([3]; 1 = Large nucleus or nuclei, low to medium fluorescence, Moderate dysplasia (n = 9)) was 9/9. The “Number of Samples with Cells having Numerical Description by TCPP Fluorescence Microscopy/Number of Samples with Cell Description by Cytmorphology” value ([3]; 1 = Large nucleus or nuclei, low to medium fluorescence, Negative or metaplastic (n = 10)) was 3/10, the “Number of Samples with Cells having Numerical Description by TCPP Fluorescence Microscopy/Number of Samples with Cell Description by Cytmorphology” value ([3]; 1 = Large nucleus or nuclei, low to medium fluorescence, Severe dysplasia (n = 8)) was 7/8 and the “Number of Samples with Cells having Numerical Description by TCPP Fluorescence Microscopy/Number of Samples with Cell Description by Cytmorphology” value ([3]; 2 = Symmetrical binuclear cells, medium fluorescence, Adenicarcinoma, squamous cell and small cell carcinoma (n = 10)) was 2/10. For the same molecule, the “Number of Samples with Cells having Numerical Description by TCPP Fluorescence Microscopy/Number of Samples with Cell Description by Cytmorphology” value ([3]; 2 = Symmetrical binuclear cells, medium fluorescence, Carcinoma in situ (n = 11)) was 3/11, the “Number of Samples with Cells having Numerical Description by TCPP Fluorescence Microscopy/Number of Samples with Cell Description by Cytmorphology” value ([3]; 2 = Symmetrical binuclear cells, medium fluorescence, Mild dysplasia (n = 12)) was 5/12 and the “Number of Samples with Cells having Numerical Description by TCPP Fluorescence Microscopy/Number of Samples with Cell Description by Cytmorphology” value ([3]; 2 = Symmetrical binuclear cells, medium fluorescence, Moderate dysplasia (n = 9)) was 5/9. For the same molecule, the “Number of Samples with Cells having Numerical Description by TCPP Fluorescence Microscopy/Number of Samples with Cell Description by Cytmorphology” value ([3]; 2 = Symmetrical binuclear cells, medium fluorescence, Negative or metaplastic (n = 10)) was 0/10, the “Number of Samples with Cells having Numerical Description by TCPP Fluorescence Microscopy/Number of Samples with Cell Description by Cytmorphology” value ([3]; 2 = Symmetrical binuclear cells, medium fluorescence, Severe dysplasia (n = 8)) was 3/8 and the “Number of Samples with Cells having Numerical Description by TCPP Fluorescence Microscopy/Number of Samples with Cell Description by Cytmorphology” value ([3]; 3 = Small oval cells, medium to high fluorescence, Adenicarcinoma, squamous cell and small cell carcinoma (n = 10)) was 6/10. The “Number of Samples with Cells having Numerical Description by TCPP Fluorescence Microscopy/Number of Samples with Cell Description by Cytmorphology” value ([3]; 3 = Small oval cells, medium to high fluorescence, Carcinoma in situ (n = 11)) was 6/11, the “Number of Samples with Cells having Numerical Description by TCPP Fluorescence Microscopy/Number of Samples with Cell Description by Cytmorphology” value ([3]; 3 = Small oval cells, medium to high fluorescence, Mild dysplasia (n = 12)) was 4/12 and the “Number of Samples with Cells having Numerical Description by TCPP Fluorescence Microscopy/Number of Samples with Cell Description by Cytmorphology” value ([3]; 3 = Small oval cells, medium to high fluorescence, Moderate dysplasia (n = 9)) was 4/9. For the same molecule, the “Number of Samples with Cells having Numerical Description by TCPP Fluorescence Microscopy/Number of Samples with Cell Description by Cytmorphology” value ([3]; 3 = Small oval cells, medium to high fluorescence, Negative or metaplastic (n = 10)) was 0/10, the “Number of Samples with Cells having Numerical Description by TCPP Fluorescence Microscopy/Number of Samples with Cell Description by Cytmorphology” value ([3]; 3 = Small oval cells, medium to high fluorescence, Severe dysplasia (n = 8)) was 2/8 and the “Number of Samples with Cells having Numerical Description by TCPP Fluorescence Microscopy/Number of Samples with Cell Description by Cytmorphology” value ([3]; 4 = Small round cells, low fluorescence, Adenicarcinoma, squamous cell and small cell carcinoma (n = 10)) was 2/10. The “Number of Samples with Cells having Numerical Description by TCPP Fluorescence Microscopy/Number of Samples with Cell Description by Cytmorphology” value ([3]; 4 = Small round cells, low fluorescence, Carcinoma in situ (n = 11)) was 0/11, the “Number of Samples with Cells having Numerical Description by TCPP Fluorescence Microscopy/Number of Samples with Cell Description by Cytmorphology” value ([3]; 4 = Small round cells, low fluorescence, Mild dysplasia (n = 12)) was 0/12 and the “Number of Samples with Cells having Numerical Description by TCPP Fluorescence Microscopy/Number of Samples with Cell Description by Cytmorphology” value ([3]; 4 = Small round cells, low fluorescence, Moderate dysplasia (n = 9)) was 0/9. The “Number of Samples with Cells having Numerical Description by TCPP Fluorescence Microscopy/Number of Samples with Cell Description by Cytmorphology” value ([3]; 4 = Small round cells, low fluorescence, Negative or metaplastic (n = 10)) was 0/10, the “Number of Samples with Cells having Numerical Description by TCPP Fluorescence Microscopy/Number of Samples with Cell Description by Cytmorphology” value ([3]; 4 = Small round cells, low fluorescence, Severe dysplasia (n = 8)) was 0/8 and the “Number of Samples with Cells having Numerical Description by TCPP Fluorescence Microscopy/Number of Samples with Cell Description by Cytmorphology” value ([3]; 5 = Multi-nucleated cells, medium fluorescence, Adenicarcinoma, squamous cell and small cell carcinoma (n = 10)) was 7/10. For the same molecule, the “Number of Samples with Cells having Numerical Description by TCPP Fluorescence Microscopy/Number of Samples with Cell Description by Cytmorphology” value ([3]; 5 = Multi-nucleated cells, medium fluorescence, Carcinoma in situ (n = 11)) was 9/11, the “Number of Samples with Cells having Numerical Description by TCPP Fluorescence Microscopy/Number of Samples with Cell Description by Cytmorphology” value ([3]; 5 = Multi-nucleated cells, medium fluorescence, Mild dysplasia (n = 12)) was 0/12 and the “Number of Samples with Cells having Numerical Description by TCPP Fluorescence Microscopy/Number of Samples with Cell Description by Cytmorphology” value ([3]; 5 = Multi-nucleated cells, medium fluorescence, Moderate dysplasia (n = 9)) was 3/9. For the same molecule, the “Number of Samples with Cells having Numerical Description by TCPP Fluorescence Microscopy/Number of Samples with Cell Description by Cytmorphology” value ([3]; 5 = Multi-nucleated cells, medium fluorescence, Negative or metaplastic (n = 10)) was 0/10, the “Number of Samples with Cells having Numerical Description by TCPP Fluorescence Microscopy/Number of Samples with Cell Description by Cytmorphology” value ([3]; 5 = Multi-nucleated cells, medium fluorescence, Severe dysplasia (n = 8)) was 6/8 and the “Number of Samples with Cells having Numerical Description by TCPP Fluorescence Microscopy/Number of Samples with Cell Description by Cytmorphology” value ([3]; 6 = Irregular anisoid cells, low to medium fluorescence, Adenicarcinoma, squamous cell and small cell carcinoma (n = 10)) was 7/10. For the same molecule, the “Number of Samples with Cells having Numerical Description by TCPP Fluorescence Microscopy/Number of Samples with Cell Description by Cytmorphology” value ([3]; 6 = Irregular anisoid cells, low to medium fluorescence, Carcinoma in situ (n = 11)) was 10/11, the “Number of Samples with Cells having Numerical Description by TCPP Fluorescence Microscopy/Number of Samples with Cell Description by Cytmorphology” value ([3]; 6 = Irregular anisoid cells, low to medium fluorescence, Mild dysplasia (n = 12)) was 0/12 and the “Number of Samples with Cells having Numerical Description by TCPP Fluorescence Microscopy/Number of Samples with Cell Description by Cytmorphology” value ([3]; 6 = Irregular anisoid cells, low to medium fluorescence, Moderate dysplasia (n = 9)) was 1/9. For the same molecule, the “Number of Samples with Cells having Numerical Description by TCPP Fluorescence Microscopy/Number of Samples with Cell Description by Cytmorphology” value ([3]; 6 = Irregular anisoid cells, low to medium fluorescence, Negative or metaplastic (n = 10)) was 0/10, the “Number of Samples with Cells having Numerical Description by TCPP Fluorescence Microscopy/Number of Samples with Cell Description by Cytmorphology” value ([3]; 6 = Irregular anisoid cells, low to medium fluorescence, Severe dysplasia (n = 8)) was 1/8 and the “Number of Samples with Cells having Numerical Description by TCPP Fluorescence Microscopy/Number of Samples with Cell Description by Cytmorphology” value ([3]; 7 = Cellular clusters, medium to high fluorescence, Adenicarcinoma, squamous cell and small cell carcinoma (n = 10)) was 3/10. For the same molecule, the “Number of Samples with Cells having Numerical Description by TCPP Fluorescence Microscopy/Number of Samples with Cell Description by Cytmorphology” value ([3]; 7 = Cellular clusters, medium to high fluorescence, Carcinoma in situ (n = 11)) was 1/11, the “Number of Samples with Cells having Numerical Description by TCPP Fluorescence Microscopy/Number of Samples with Cell Description by Cytmorphology” value ([3]; 7 = Cellular clusters, medium to high fluorescence, Mild dysplasia (n = 12)) was 0/12 and the “Number of Samples with Cells having Numerical Description by TCPP Fluorescence Microscopy/Number of Samples with Cell Description by Cytmorphology” value ([3]; 7 = Cellular clusters, medium to high fluorescence, Moderate dysplasia (n = 9)) was 1/9. The “Number of Samples with Cells having Numerical Description by TCPP Fluorescence Microscopy/Number of Samples with Cell Description by Cytmorphology” value ([3]; 7 = Cellular clusters, medium to high fluorescence, Negative or metaplastic (n = 10)) was 0/10, the “Number of Samples with Cells having Numerical Description by TCPP Fluorescence Microscopy/Number of Samples with Cell Description by Cytmorphology” value ([3]; 7 = Cellular clusters, medium to high fluorescence, Severe dysplasia (n = 8)) was 0/8 and the “Number of Samples with Cells having Numerical Description by TCPP Fluorescence Microscopy/Number of Samples with Cell Description by Cytmorphology” value ([3]; 8 = Degenerated single cells, medium to high fluorescence, Adenicarcinoma, squamous cell and small cell carcinoma (n = 10)) was 7/10. For the same molecule, the “Number of Samples with Cells having Numerical Description by TCPP Fluorescence Microscopy/Number of Samples with Cell Description by Cytmorphology” value ([3]; 8 = Degenerated single cells, medium to high fluorescence, Carcinoma in situ (n = 11)) was 4/11, the “Number of Samples with Cells having Numerical Description by TCPP Fluorescence Microscopy/Number of Samples with Cell Description by Cytmorphology” value ([3]; 8 = Degenerated single cells, medium to high fluorescence, Mild dysplasia (n = 12)) was 0/12 and the “Number of Samples with Cells having Numerical Description by TCPP Fluorescence Microscopy/Number of Samples with Cell Description by Cytmorphology” value ([3]; 8 = Degenerated single cells, medium to high fluorescence, Moderate dysplasia (n = 9)) was 0/9. For the same molecule, the “Number of Samples with Cells having Numerical Description by TCPP Fluorescence Microscopy/Number of Samples with Cell Description by Cytmorphology” value ([3]; 8 = Degenerated single cells, medium to high fluorescence, Negative or metaplastic (n = 10)) was 0/10, the “Number of Samples with Cells having Numerical Description by TCPP Fluorescence Microscopy/Number of Samples with Cell Description by Cytmorphology” value ([3]; 8 = Degenerated single cells, medium to high fluorescence, Severe dysplasia (n = 8)) was 0/8 and the “Number of Samples with Cells having Numerical Description by TCPP Fluorescence Microscopy/Number of Samples with Cell Description by Cytmorphology” value ([3]; 9 = Degenerated cell clusters, medium to high fluorescence, Adenicarcinoma, squamous cell and small cell carcinoma (n = 10)) was 4/10. For the same molecule, the “Number of Samples with Cells having Numerical Description by TCPP Fluorescence Microscopy/Number of Samples with Cell Description by Cytmorphology” value ([3]; 9 = Degenerated cell clusters, medium to high fluorescence, Carcinoma in situ (n = 11)) was 1/11 and the “Number of Samples with Cells having Numerical Description by TCPP Fluorescence Microscopy/Number of Samples with Cell Description by Cytmorphology” value ([3]; 9 = Degenerated cell clusters, medium to high fluorescence, Mild dysplasia (n = 12)) was 0/12.
